Measurements reported in publication PMC9917735, “Optimization of the Hemolysis Assay for the Assessment of Cytotoxicity” (International Journal of Molecular Sciences, 2023).
Converted amounts (≈) assume the structure as drawn. Like-named read-outs stand apart in the source and are kept apart here.

What was measured:
[1] = system: washed human erythrocytes; experiment: Hemolysis assay, washed human erythrocytes
[2] = system: rabbit whole blood; details: for Hemolysis ratio: rabbit whole blood, AMPs 100 μM, 1 hour 37 °C, 3 x 2 replicates
Description: (§1) Cytotoxicity studies are important during characterization of novel compounds or materials intended for interactions within human biological systems in vivo. Evaluation of the extent to which the compound induces disruption of the membrane of erythrocytes (red blood cells), thereby causing release of cellular content, often constitutes an initial step in such cytotoxicity assessments. The assay used in this context is generally referred to as the hemolysis assay, which has the advantages of being cheap, accessible, and simple to perform. Blood is drawn from a human or an animal, and next, the washed erythrocytes are incubated together with the compound or material under investigation. If the compound causes hemolysis, hemoglobin (along with other cellular constituents) will be released into the supernatant.
(§2) Blood from mice, rats, and rabbits was provided by the Department of Comparative Medicine at Oslo University Hospital (Marianne Aannestad). For mice and rats, the blood was collected from the heart by using 25 G and 21 G needles, respectively, whereas for rabbits, the blood was collected by free bleed through the ear using a yellow neoflon (24 G). All animals were wild type and anesthetized prior to the procedure.
(§3) All blood was collected in Lithium Heparin tubes 4 mL (Greiner Bio-One, Kremsmünster, Austria) or Coagulation sodium citrate 3.2% tubes 3 mL (Greiner Bio-One).
(§4) AMP 2 contained an N-terminal hexanoic acid moiety, whereas all peptides contained amidated C-termini. These three peptides were synthesized by Genscript Inc. (Piscataway, NJ, USA), and stock solutions of 1 mg/mL were made from the purchased powders. […] All peptides were diluted to yield a 100 μM final concentration in the hemolysis assays.
(§5) Triton X-100 (T8787) and Tween-20 (P2287) detergents were purchased from Sigma Aldrich and diluted to obtain 10% stock solutions by weighing (w/v). A sodium Dodecyl Sulfate (SDS) 10% solution was purchased from Invitrogen (Waltham, MA, USA, 15553027). All subsequent dilutions annotated in figures were made from these stocks.
(§6) As soon as possible after phlebotomy, the blood samples were centrifuged at 1700× g for 5 min. The supernatant was removed by aspiration and 2 mL of PBS pH 7 was added. The washing step was repeated three times or until the supernatant was clear. After final aspiration, the remaining pellet was diluted 1:100 in PBS pH 7 to obtain a 1% erythrocyte suspension (or 1:100, 1:50, and 1:20 for assays testing the effect of erythrocyte concentration). For experiments using whole blood, the washing steps were not performed, but downstream experimentation was identical. For experiments performed with 96-well plates, 50 μL of test compound, water, or detergent were mixed with 50 μL of blood sample (1% erythrocyte suspension or whole blood). For experiments using larger volumes, 250 μL of test compound, water, or detergent were mixed with 250 μL blood sample in an Eppendorf tube. Samples were subsequently incubated at 37 °C for 60 min (or 15, 30, 60, 90, or 120 min for assays evaluating the effect of incubation time). After incubation, the plates/tubes were centrifuged at 1700× g for 5 min, and then 50 μL of the supernatants were transferred to transparent, flat-bottom 96-well plates (Anicrin, A013418). Finally, absorption was measured at 405, 530, and 570 nm in a Victor Nivo Multimode microplate reader (Perkin Elmer, Waltham, MA, USA).

[3] = system: rat erythrocytes; details: AMPs 100 μM, 1 hour 37 °C, pos. 10% Triton X-100, neg. PBS, 3 x 2 replicates
Description: as §1, §2, §3, §4, §5, §6

[4] = system: mouse erythrocytes; details: AMPs 100 μM, 1 hour 37 °C, pos. 10% Triton X-100, neg. PBS, 3 x 2 replicates
Description: as §1, §2, §3, §4, §5, §6

[5] = system: rabbit erythrocytes; details: AMPs 100 μM, 1 hour 37 °C, pos. 10% Triton X-100, neg. PBS, 3 x 2 replicates
Description: as §1, §2, §3, §4, §5, §6

[6] = system: washed human erythrocytes; experiment: Flow cytometry of treated erythrocytes with live/dead amine-reactive stain; type: cell-based; details: washed human erythrocytes treated 60 minutes, AMPs 100 μM, amine-reactive dye 488, flow cytometry 533/30 nm
Protocol: Briefly, a 1% washed erythrocyte solution was diluted to ~10^5 cells/mL and 0.4% Trypan blue (1:1 ratio) was added before 10 μL of the stained cell suspension was added to the Countess cell counting chamber slide. After a 30 s incubation, the slide was inserted into the instrument for automatic cell counting.
The Countess II automated cell counter (see above) was used to adjust the negative control sample to ~10^5 cells/mL and to subsequently dilute all samples by the same factor. Then, 0.5 μL of live/dead amine-reactive dye 488 (Fisher Scientific, Waltham, MA, USA) was added to 0.5 mL cell suspension and incubated for 30 min protected from light. Subsequently, the samples were washed twice with PBS pH 7 containing 1% bovine serum albumin (BSA), and finally resuspended in PBS pH 7 with 1% BSA. Cells were next counted, and the fluorescence measured using the 533/30 nm filter in an Accuri C6 flow cytometer (BD Biosciences, Franklin Lakes, NJ, USA).

[7] = system: human whole blood; details: for Calculated hemolysis ratio: human whole blood, peptides 100 μM, 60 min 37 °C, neg. PBS, 3 x 2 replicates
[8] = system: E. coli; details: E. coli

SMILES: CC[C@H](C)[C@H](NC(=O)[C@H](CC(C)C)NC(=O)[C@H](CCC(N)=O)NC(=O)[C@H](CC(C)C)NC(=O)[C@@H](NC(=O)[C@H](C)NC(=O)[C@H](CCCCN)NC(=O)[C@H](CCCCN)NC(=O)[C@H](CCCCN)NC(=O)[C@H](CCCCN)NC(=O)[C@H](CCCCN)NC(=O)[C@@H](NC(=O)[C@H](CCCNC(=N)N)NC(=O)[C@H](CCCCN)NC(=O)[C@@H](NC(=O)[C@H](CC(C)C)NC(=O)[C@H](Cc1ccc(O)cc1)NC(=O)[C@H](CCCNC(=N)N)NC(=O)CNC(=O)[C@H](CC(=O)O)NC(=O)[C@@H](NC(=O)[C@@H](N)CCSC)[C@@H](C)O)[C@@H](C)CC)C(C)C)C(C)C)C(=O)N[C@@H](CC(C)C)C(=O)N[C@@H](CCCCN)C(=O)N[C@@H](Cc1ccccc1)C(=O)N[C@@H](CC(C)C)C(N)=O [AMP 3]
- Calculated hemolysis ratio ([1]; 1% washed human erythrocytes, OD 530 nm, peptides 100 μM, 60 min 37 °C, pos. 10% Triton X-100, neg. PBS, 3 x 2 replicates): 68.4 ± 15%
- Calculated hemolysis ratio ([1]; 1% washed human erythrocytes, OD 570 nm, peptides 100 μM, 60 min 37 °C, pos. 10% Triton X-100, neg. PBS, 3 x 2 replicates): 65.7 ± 11.6%
- Calculated Hemolysis (%) ([1]; 2% pooled human erythrocytes, AMPs 100 µM, 60 min 37 °C, 405 nm, pos. 10% Triton X-100, neg. PBS, 3 x 2 replicates): 41.1 ± 3.2%
- Calculated Hemolysis (%) ([1]; 5% pooled human erythrocytes, AMPs 100 µM, 60 min 37 °C, 405 nm, pos. 10% Triton X-100, neg. PBS, 3 x 2 replicates): 45.7 ± 8.2%
- Calculated hemolysis ratio ([1]; Table 1: 1% human erythrocytes, 100 µM, 60 min 37 °C, OD 405 nm, pos. 10% Triton X-100, neg. PBS, mean ± SD, 3 experimental x 2 technical replicates): 37 ± 5.1%
- Calculated hemolysis ratio ([1]; Table 2: pooled blood from all 10 individuals, 1% erythrocytes, AMPs 100 µM, 60 min 37 °C, 405 nm, pos. 10% Triton X, neg. PBS, 3 x 2 replicates): 45.4 ± 4.8%
- Calculated Hemolysis (%) ([1]; Table 3: 1% pooled human erythrocytes, AMPs 100 µM, 60 min 37 °C, 405 nm, pos. 10% Triton X-100, neg. PBS, 3 x 2 replicates): 45.4 ± 4.8%
- Calculated hemolysis ratio ([1]; Table 4: incubation 60 min, 37 °C, 1% human erythrocytes, AMPs 100 µM, 405 nm, pos. 10% Triton X-100, neg. PBS, 3 biological x 2 technical replicates): 64.6 ± 6.8%
- Calculated hemolysis ratio ([1]; Table 6: 1% washed human erythrocytes, OD 405 nm, peptides 100 μM, 60 min 37 °C, pos. 10% Triton X-100, neg. PBS, 3 x 2 replicates): 73.5 ± 14.4%
- Calculated hemolysis ratio ([1]; human individual # 1, 1% erythrocytes, AMPs 100 µM, 60 min 37 °C, 405 nm, pos. 10% Triton X, neg. PBS, 3 x 2 replicates): 36.4 ± 5%
- Calculated hemolysis ratio ([1]; human individual # 2, 1% erythrocytes, AMPs 100 µM, 60 min 37 °C, 405 nm, pos. 10% Triton X, neg. PBS, 3 x 2 replicates): 39.3 ± 6%
- Calculated hemolysis ratio ([1]; human individual # 3, 1% erythrocytes, AMPs 100 µM, 60 min 37 °C, 405 nm, pos. 10% Triton X, neg. PBS, 3 x 2 replicates): 49.4 ± 8.5%
- Calculated hemolysis ratio ([1]; human individual # 4, 1% erythrocytes, AMPs 100 µM, 60 min 37 °C, 405 nm, pos. 10% Triton X, neg. PBS, 3 x 2 replicates): 43.6 ± 4.2%
- Calculated hemolysis ratio ([1]; human individual # 5, 1% erythrocytes, AMPs 100 µM, 60 min 37 °C, 405 nm, pos. 10% Triton X, neg. PBS, 3 x 2 replicates): 38.3 ± 7.3%
- Calculated hemolysis ratio ([1]; human individual # 6, 1% erythrocytes, AMPs 100 µM, 60 min 37 °C, 405 nm, pos. 10% Triton X, neg. PBS, 3 x 2 replicates): 45.7 ± 6.4%
- Calculated hemolysis ratio ([1]; human individual # 7, 1% erythrocytes, AMPs 100 µM, 60 min 37 °C, 405 nm, pos. 10% Triton X, neg. PBS, 3 x 2 replicates): 37.7 ± 6.9%
- Calculated hemolysis ratio ([1]; human individual # 8, 1% erythrocytes, AMPs 100 µM, 60 min 37 °C, 405 nm, pos. 10% Triton X, neg. PBS, 3 x 2 replicates): 45.6 ± 9.2%
- Calculated hemolysis ratio ([1]; human individual # 9, 1% erythrocytes, AMPs 100 µM, 60 min 37 °C, 405 nm, pos. 10% Triton X, neg. PBS, 3 x 2 replicates): 42.1 ± 4.7%
- Calculated hemolysis ratio ([1]; human individual # 10, 1% erythrocytes, AMPs 100 µM, 60 min 37 °C, 405 nm, pos. 10% Triton X, neg. PBS, 3 x 2 replicates): 50.3 ± 4.6%
- Calculated hemolysis ratio ([1]; incubated in polypropylene tubes, 1% washed human erythrocytes, peptides 100 μM, 60 min 37 °C, 405 nm, pos. 10% Triton X-100, neg. PBS, 3 x 2 replicates): 57.5 ± 13.2%
- Calculated hemolysis ratio ([1]; incubated in polystyrene tubes, 1% washed human erythrocytes, peptides 100 μM, 60 min 37 °C, 405 nm, pos. 10% Triton X-100, neg. PBS, 3 x 2 replicates): 66.7 ± 12.7%
- Calculated hemolysis ratio ([1]; incubation 15 min, 37 °C, 1% human erythrocytes, AMPs 100 µM, 405 nm, pos. 10% Triton X-100, neg. PBS, 3 biological x 2 technical replicates): 54.8 ± 8.2%
- Calculated hemolysis ratio ([1]; incubation 30 min, 37 °C, 1% human erythrocytes, AMPs 100 µM, 405 nm, pos. 10% Triton X-100, neg. PBS, 3 biological x 2 technical replicates): 56.6 ± 7.4%
- Calculated hemolysis ratio ([1]; incubation 90 min, 37 °C, 1% human erythrocytes, AMPs 100 µM, 405 nm, pos. 10% Triton X-100, neg. PBS, 3 biological x 2 technical replicates): 63 ± 4.5%
- Calculated hemolysis ratio ([1]; incubation 120 min, 37 °C, 1% human erythrocytes, AMPs 100 µM, 405 nm, pos. 10% Triton X-100, neg. PBS, 3 biological x 2 technical replicates): 74.3 ± 21.1%
- Observed hemolytic properties (qualitative) ([1]; reason for choice of the AMPs): high
- Calculated hemolysis ratio ([1]; total incubation volume 100 μL, 1% washed human erythrocytes, peptides 100 μM, 60 min 37 °C, 405 nm, pos. 10% Triton X-100, neg. PBS, 3 x 2 replicates): 66.7 ± 12.7%
- Calculated hemolysis ratio ([1]; total incubation volume 500 μL, 1% washed human erythrocytes, peptides 100 μM, 60 min 37 °C, 405 nm, pos. 10% Triton X-100, neg. PBS, 3 x 2 replicates): 72.7 ± 10.4%
- Fold decrease of hemolytic effect in rabbit whole blood vs washed rabbit erythrocytes ([2]; cf. Tables S3 and S4, 100 μM): 4 fold
- Hemolysis ratio ([2]; OD 530 nm, pos. 10% SDS, neg. PBS): 13.2 +/- 3%
- Hemolysis ratio ([2]; OD 570 nm, pos. 10% Triton X-100, neg. PBS): 13.1 +/- 3.2%
- Hemolysis ratio ([3]; Table S4: washed rat erythrocytes, OD 405 nm): 29.5 +/- 8.2%
- Hemolysis ratio ([3]; washed rat erythrocytes, OD 530 nm): 30.7 +/- 13.1%
- Hemolysis ratio ([3]; washed rat erythrocytes, OD 570 nm): 31.1 +/- 12.7%
- Hemolysis ratio ([4]; Table S4: washed mouse erythrocytes, OD 405 nm): 77.1 +/- 3.8%
- Hemolysis ratio ([4]; washed mouse erythrocytes, OD 530 nm): 71.1 +/- 3.2%
- Hemolysis ratio ([4]; washed mouse erythrocytes, OD 570 nm): 47.7 +/- 2.5%
- Hemolysis ratio ([5]; Table S4: washed rabbit erythrocytes, OD 405 nm): 53.2 +/- 7.4%
- Hemolysis ratio ([5]; washed rabbit erythrocytes, OD 530 nm): 50.1 +/- 7.7%
- Hemolysis ratio ([5]; washed rabbit erythrocytes, OD 570 nm): 52.7 +/- 8.2%
- Fluorescence intensity per cell of remaining intact cells (live/dead stain) [6]: surprisingly high fluorescence intensity measurements per cell
- Calculated hemolysis ratio ([7]; OD 405 nm (signal saturated), pos. 10% SDS): 15.5 ± 7.1%
- Calculated hemolysis ratio ([7]; OD 530 nm, pos. 10% SDS): 2.7%
- Calculated hemolysis ratio ([7]; OD 570 nm, pos. 10% Triton X-100 (table title; text says 10% SDS)): 3.8%
- Fold reduction in HR in human whole blood in comparison with washed erythrocytes measured at 405 nm ([7]; whole blood HR with 10% SDS as positive control (Table 5) vs washed erythrocytes (Table 6), 100 μM): > 27 fold
- Minimum inhibitory concentration (E. coli) [8]: 4 µM (≈ 12.5 µg/mL)
